The source of these data is patent US10150736B2, “Haptens and immunoreactive agents and use thereof for producing family antibodies and immunoassays for quinolones” (Consejo Superior de Investigaciones Cientificas (CSIC), priority 2010, dated 2018).

Converted amounts (≈) assume the structure as drawn.

Common to all, as to format: binding, rabbit
In test [1] the test system is antibodies developed with immunoreactive agents described herein. The experiment in a line: Determination of cross-reactivity by ELISA. The note with it: for % CR (cross-reactivity): (DI50 CPFX/DI50 of tested compounds)×100; for IC50: competitive ELISA, antiserum and immunoreactive agent not named. As to the method:
(§1) Microtiter plates were coated with corresponding coating antigen (indirect format) or antiserum (direct format) dissolved in coating buffer (100 μL/well) overnight at 4° C. or during 4 hours at room temperature and covered with airtight adhesive plates. Subsequently, plates were washed with PBST (four times, 300 μL/well) and quinolone patters were added (0.01 nM-10000 nM, in PBST, 50 μL/well) followed by the corresponding antiserum (indirect format) or enzymatic tracer (direct format) (50 μL/well) in microtiter plates. After 30 minutes at room temperature, plates were washed as described above and, in the case of indirect format, a solution of antilgG rabbit IgG labelled with HRP (1/6000 in PBST) (100 μl/well) was added and incubated for 30 minutes at room temperature. Plates were washed again, and for both formats, substrate solution was added (100 μL/well). Color development was stopped after 30 minutes at room temperature with […] (50 μL/well), and absorbance was read at 450 nm. Standard curves were adjusted to a four parameter equation, using the following formula: Y−[(A−B)/1−[x/C)D]+B, where A represents maximum absorbance, B represents minimum absorbance, C represents the concentration producing 50% of maximum absorbance, and D represents the tangent at the inflection point of sigmoid curve.
Stock solutions were prepared at a concentration of […] for different quinolones and other antibiotics in sodium hydroxide ([…]) and measured by ELISA. Cross-reactivity values were calculated according to the equation below: (DI50 CPFX/DI50 of tested compounds)×100.
For orientation: ELISA stands for enzyme-linked immunosorbent assay.

The subject of test [2] is antiserum (As) 171. The experiment in a line: Competitive ELISA for ciprofloxacin, antiserum 171, coating antigen (indirect format). The method, then:
(§2) Immunization protocol was conducted in female white rabbits from New Zealand weighing 1-2 Kg, as described previously (Salvador, Analytical Chemistry. 2007, 79, 3734-3740). Immunogens (100 μg) dissolved in PBS (0.5 mL) were emulsified with Freund's adjuvant, completely the first time and the remainder incompletely, in 1:1 ratio. They were rapidly injected intradermally in different places of the host animal back (one injection per month). Antibody titers evolution was assessed by measuring serial dilutions binding of different antiserum in microtiter plates coated with the corresponding immunoreactive agent. After observing an acceptable antibody titer, animals were bled to death and their blood was collected in Vacutainer tubes fitted with a serum separating gel. Antiserum were obtained by centrifugation and stored at −80° C. in the presence of 0.02% NaN3.
as §1, with “Plates were washed again, and for both formats, substrate solution was added (100 μL/well).” left out

Test [3] relates to antiserum (As) 172. The experiment in a line: Competitive ELISA for ciprofloxacin, antiserum 172, coating antigen (indirect format). As to the method:
as §2
as §1, with “Plates were washed again, and for both formats, substrate solution was added (100 μL/well).” left out

Test [4] concerns antiserum (As) 171. Kind of test: Competitive ELISA for ciprofloxacin, antiserum 171 with HRP conjugate I31 (enzymatic tracer). Particulars: As 171 dilution 1/8000; IR I31 0.0625 μg/mL. The method, then: as §2, with “After observing an acceptable antibody titer, animals were bled to death and their blood was collected in Vacutainer tubes fitted with a serum separating gel. Antiserum were obtained by centrifugation and stored at −80° C. in the presence of 0.02% NaN3.” left out
Microtiter plates were coated with corresponding coating antigen (indirect format) or antiserum (direct format) dissolved in coating buffer (100 μL/well) overnight at 4° C. or during 4 hours at room temperature and covered with airtight adhesive plates. […] Color development was stopped after 30 minutes at room temperature with […] (50 μL/well), and absorbance was read at 450 nm. Standard curves were adjusted to a four parameter equation, using the following formula: Y−[(A−B)/1−[x/C)D]+B, where A represents maximum absorbance, B represents minimum absorbance, C represents the concentration producing 50% of maximum absorbance, and D represents the tangent at the inflection point of sigmoid curve.

The test system of test [5] is antiserum (As) 173. The experiment in a line: Competitive ELISA for ciprofloxacin, antiserum 173, coating antigen (indirect format). As to the method: as §2
as §1, with “Plates were washed again, and for both formats, substrate solution was added (100 μL/well).” left out

Consider `O=C(N[C@H](CO)[C@H](O)c1ccc([N+](=O)[O-])cc1)C(Cl)Cl` [Chloramphenicol], for which, in test [1], the “% CR (cross-reactivity)” value is less than 0.2% and the IC50 is given as more than 1000 μg-L^−1.
`O=C(O)c1cn(C2CC2)c2cc(N3CCNCC3)c(F)cc2c1=O` [Ciprofloxacin]: the IC50 in test [2] (As 171 dilution 1/16000, IR I16 2.5 μg/mL) amounted to 0.0164 µg/mL (≈ 0.0495 µM); in test [2] (As 171 dilution 1/16000, IR I26 0.25 μg/mL) it was 0.00166 µg/mL (≈ 0.00501 µM); in test [2] (As 171 dilution 1/128000, IR I19 0.0156 μg/mL) it was 0.00481 µg/mL (≈ 0.0145 µM); in test [3] (As 172 dilution 1/4000, IR I16 2.5 μg/mL) it was 0.03839 µg/mL (≈ 0.116 µM); in test [3] (As 172 dilution 1/4000, IR I26 0.25 μg/mL) it was 0.01156 µg/mL (≈ 0.0349 µM); in test [3] (As 172 dilution 1/32000, IR I19 0.0156 μg/mL), 0.0276 µg/mL (≈ 0.0833 µM). Further, the IC50 was determined as 0.00081 µg/mL (≈ 0.00244 µM) in test [4]; 0.77 ± 0.27 μg-L^−1 in test [1]; 0.13468 µg/mL (≈ 0.406 µM) in test [5] (As 173 dilution 1/16000, IR I16 5 μg/mL); 0.00149 µg/mL (≈ 0.0045 µM) in test [5] (As 173 dilution 1/16000, IR I26 0.25 μg/mL); 0.04855 µg/mL (≈ 0.147 µM) in test [5] (As 173 dilution 1/128000, IR I19 0.0156 μg/mL). Besides, the “% CR (cross-reactivity)” value in test [1] was found to be 100%.
On to `CN1CCN(c2cc3c(cc2F)c(=O)c(C(=O)O)cn3-c2ccc(F)cc2)CC1` [Difloxacin], for which, in test [1], the “% CR (cross-reactivity)” value is listed as 75% and the IC50 is 0.91 μg-L^−1.
Regarding `Nc1ccc(S(=O)(=O)Nc2nccs2)cc1` [Sulfathiazole], in test [1], the “% CR (cross-reactivity)” value is less than 0.2% and the IC50 was more than 1000 μg-L^−1.
With `CCN1CCN(c2cc3c(cc2F)c(=O)c(C(=O)O)cn3C2CC2)CC1` [Enrofloxacin], in test [1], the “% CR (cross-reactivity)” value turned out to be 95% and the IC50 was 0.65 μg-L^−1.
As to `O=C(O)c1cn(-c2ccc(F)cc2)c2cc(N3CCNCC3)c(F)cc2c1=O` [Sarafloxacin], in test [1], the “% CR (cross-reactivity)” value worked out at 80% and the IC50 is given as 0.96 μg-L^−1.
`CC1(C)S[C@@H]2[C@H](NC(=O)[C@H](N)c3ccccc3)C(=O)N2[C@H]1C(=O)O` [Ampicillin]: in test [1], the “% CR (cross-reactivity)” value was less than 0.2% and the IC50 is more than 1000 μg-L^−1.
As for `CC1CCc2cc(F)cc3c(=O)c(C(=O)O)cn1c23` (stereo not drawn) [Flumequine], in test [1], the “% CR (cross-reactivity)” value was 22% and the IC50 stood at 3.91 μg-L^−1.
Turning to `CN1C[C@@H]2C[C@H]1CN2c1cc2c(cc1F)c(=O)c(C(=O)O)cn2C1CC1` [Danofloxacin], in test [1], the “% CR (cross-reactivity)” value was found to be 8% and the IC50 came out at 7.31 μg-L^−1.
For `CN1CCN(c2c(F)cc3c(=O)c(C(=O)O)cn4c3c2OCN4C)CC1` [Marbofloxacin], in test [1], the “% CR (cross-reactivity)” value came out at 28% and the IC50 is recorded as 4.30 μg-L^−1.
On to `CCn1cc(C(=O)O)c(=O)c2cc3c(cc21)OCO3` [Oxolinic acid], for which, in test [1], the “% CR (cross-reactivity)” value is 4% and the IC50 is 23.53 μg-L^−1.
Turning to `Cc1cc(C)nc(NS(=O)(=O)c2ccc(N)cc2)n1` [Sulfamethazine], in test [1], the “% CR (cross-reactivity)” value is on record as less than 0.2% and the IC50 was more than 1000 μg-L^−1.
For the compound `CCn1cc(C(=O)O)c(=O)c2cc(F)c(N3CCNCC3)cc21` [Norfloxacin], in test [1], the “% CR (cross-reactivity)” value is reported as 81% and the IC50 is on record as 0.78 μg-L^−1.
